How the values were obtained:
[1] = test system: southern armyworm (Prodenia eridania, (Cram.)); experiment: whole plant or invertebrate; details: Spodoptera eridania, 72 h, read-out: Insect Toxicity, % Kill at 250 ppm, SAW
in vivo = details: rat, in vivo, po
Description: (§1) These compositions were also evaluated to determine their peroral toxicity to mammals by conventional methods. The animal selected for this experiment was the rat.

rat = experiment: in vivo; details: oral, statement on Table I
Description: as §1

[2] = test system: two-spotted mite (Tetranychus urticae Koch); experiment: whole plant or invertebrate; details: foliar, 144 h, read-out: Insect Toxicity, % Kill at 250 ppm, TSM
corn = experiment: Phytotoxicity Test, corn; format: in vivo; parameters: key: A rating of 1 indicates no perceptible injury; ratings of 2, 3 and 4 indicate intermediate degrees of injury; ratings of 2, 3 and 4 indicate intermediate degrees of injury; ratings of 2, 3 and 4 indicate intermediate degrees of injury; 5 indicates the plant was dead; details: ten days
Description: (§2) Suspensions of the test compounds were prepared by dissolving one gram of compound in 50 milliliters of acetone in which had been dissolved 0.1 gram (10 percent of the weight of compound) of an alkylphenoxy polyethoxyethanol surfactant, as an emulsifying or dispersing agent. The resulting solution was mixed into 150 milliliters of water to give roughly 200 milliliters of a suspension containing the compound in finely divided form. The thus-prepared stock suspension contained 0.5 percent by weight of compound. The test concentrations in parts per million by weight employed in the tests described hereinbelow were obtained by appropriate dilutions of the stock suspension with water. The test procedures were as follows:
(§3) Experiments were also conducted to determine the phytotoxicity of representative compositions with respect to healthy fresh plants. Solutions of the compounds were prepared as described above to provide a concentration of 2500 parts per million of the test compound. The test plants were sprayed in accordance with the procedure described above for the Mite Foliage Spray Test so as to deliver approximately 100 milliliters of test solution to the leaves of each plant tested. The sprayed plants and controls were set aside for approximately one hour to allow the solutions to dry and were then placed in the greenhouse. After ten days the plants were visually inspected to determine the extent of foliage injury. A rating of 1 indicates no perceptible injury; 5 indicates the plant was dead and ratings of 2, 3 and 4 indicate intermediate degrees of injury based upon the number and extent to which leaves were injured.

[3] = test system: bean aphid (Aphis fabae Scop.); experiment: whole plant or invertebrate; details: foliar, 24 h, read-out: Insect Toxicity, % Kill at 250 ppm, BA
soybeans = experiment: Phytotoxicity Test, soybeans; format: in vivo; parameters: key: A rating of 1 indicates no perceptible injury; ratings of 2, 3 and 4 indicate intermediate degrees of injury; ratings of 2, 3 and 4 indicate intermediate degrees of injury; ratings of 2, 3 and 4 indicate intermediate degrees of injury; 5 indicates the plant was dead; details: ten days
Description: as §2, §3

[4] = test system: Mexican bean beetle (Epilachna varivestis, Muls.); experiment: whole plant or invertebrate; details: 72 h, read-out: Insect Toxicity, % Kill at 250 ppm, MBB
green beans = experiment: Phytotoxicity Test, green beans; format: in vivo; parameters: key: A rating of 1 indicates no perceptible injury; ratings of 2, 3 and 4 indicate intermediate degrees of injury; ratings of 2, 3 and 4 indicate intermediate degrees of injury; ratings of 2, 3 and 4 indicate intermediate degrees of injury; 5 indicates the plant was dead; details: ten days
Description: as §2, §3

cotton = experiment: Phytotoxicity Test, cotton; format: in vivo; parameters: key: A rating of 1 indicates no perceptible injury; ratings of 2, 3 and 4 indicate intermediate degrees of injury; ratings of 2, 3 and 4 indicate intermediate degrees of injury; ratings of 2, 3 and 4 indicate intermediate degrees of injury; 5 indicates the plant was dead; details: ten days
Description: as §2, §3

[5] = test system: house flies (Musca domestica, L.); experiment: whole plant or invertebrate; details: po, 24 h, read-out: Insect Toxicity, % Kill at 250 ppm, HF
tomato = experiment: Phytotoxicity Test, tomato; format: in vivo; parameters: key: A rating of 1 indicates no perceptible injury; ratings of 2, 3 and 4 indicate intermediate degrees of injury; ratings of 2, 3 and 4 indicate intermediate degrees of injury; ratings of 2, 3 and 4 indicate intermediate degrees of injury; 5 indicates the plant was dead; details: ten days
Description: as §2, §3

Structure (SMILES)	mortality at 250 ppm [1] [%]	LD50 (in vivo) [mg/kg]	mammalian toxicity (in words) (rat)	mortality at 250 ppm [2] [%]	Crop Phytotoxicity, Injury Rating at 2500 ppm, CN (corn)	mortality at 250 ppm [3] [%]	Crop Phytotoxicity, Injury Rating at 2500 ppm, SOYBN. (soybeans)	mortality at 250 ppm [4] [%]	Crop Phytotoxicity, Injury Rating at 2500 ppm, GB (green beans)	Crop Phytotoxicity, Injury Rating at 2500 ppm, COT. (cotton)	mortality at 250 ppm [5] [%]	Crop Phytotoxicity, Injury Rating at 2500 ppm, TOM (tomato)
CSC(C)=NOC(=O)N(C)SN(C)C [Compound 11, S-Methyl N-[N'-Methyl-N'-(Dimethylaminosulfenyl)carbamoyloxy]thioacetimidate]	100	141	extremely low mammalian toxicity	50	1	100	1	100	1	1	100	2
CSC(C)=NOC(=O)N(C)SN1CCCCC1 [Compound 12, S-Methyl-N-[N'-Methyl-N'-(1-Piperidinosulfenyl)Carbamoyloxy]Thioacetimidate]	100	141	extremely low mammalian toxicity	100	1	100	1	100	1	1	100	1
CCN(CC)SN(C)C(=O)ON=C(C)SC [Compound 17]	100	178	extremely low mammalian toxicity	80	2	100	2	100	2	2	100	1
CCCCN(CCCC)SN(C)C(=O)ON=C(C)SC [Compound 28, S-Methyl N-[N'-Methyl-N'-(Di-n-butylaminosulfenyl)Carbamoyloxy]-Thioacetimidate]	100	317	extremely low mammalian toxicity	50	1	100	1	100	1	1	100	1

Reference: patent US4315928A, “N-Aminosulfenyl carbamate compounds, compositions and use” (priority 1975, dated 1982)
